This is an account of results in patent US8048882B2, “Pharmaceutical compositions with increased activity” (priority 2003, dated 2011).

One data set in a line: Rotarod test. The settings on record: male, NMRI, mouse, in vivo, read-out: ED50, rotarod test in mice. The method, then: By the rotarod test (Dunnham, N. W., Miya, T. S. J. Am. Pharm. Assoc. 46, 208, 1957) impaired coordination and disorders of the voluntary movement as possible side effects can be studied. In this respect the change in the potency of the voltage-dependent sodium channel blockers caused by the serotonin uptake inhibitors was far less pronounced, resulting in a more favourable side effect profile of the combinations compared to that of the parent compounds.
The tests were carried out using male NMRI mice (19-21 g). Experiments performed with different pretreatment times produced similar results.
For orientation: Falling from the rotarod earlier than controls is read as motor impairment.

In data set [1] the test system is spinal reflex (L5 ventral root reflex potential). Description: Inhibition of the spinal reflex in isolated hemisected spinal cord preparation, in vitro. Also noted: species or system rat. The note with it: alone. On the procedure:
Our experiments were performed according to the methods described by Otsuka and Konishi (Otsuka, M., Konishi, S. Electrophysiology of mammalian spinal cord in vitro. Nature 252, 733-734; 1974), with slight modifications (Kocsis, P. et al. Participation of AMPA- and NMDA-type excitatory amino acid receptors in the spinal reflex transmission, in rat. Brain Research Bulletin 60: 81-91; 2003). The L5 dorsal root of the isolated, hemisected spinal cord preparation was stimulated by supramaximal electrical impulse and the reflex potential from the L5 ventral root was recorded. Different components of the reflex potential obtained are well distinguishable based on their post-stimulus latencies and durations. […] This preparation is ideal for the investigation of pharmacodynamic interactions between two substances, since metabolic factors take no part in them. […] Cont (control)=effect of crobenitine in itself; as well as in the presence of fluoxetine (Fluo; 1 μM), sertraline (Sert; 0.5 μM), paroxetine (Paro; 10 nM) and citalopram (Cital; 5 nM).

For data set [2], the system named is maximal electroshock seizures. Description: Inhibition of maximal electroshock seizures (MES). It counts as in vivo, mice. The settings on record: sodium channel blocker 30 minutes prior to electroshock. On the procedure: Experiments in this respect were carried out on male NMRI mice (19-21 g).
Serotonin uptake inhibitors were administered i.p. 45 minutes, while sodium channel blockers 30 minutes prior to the electroshock.
In general terms: Protection in the maximal electroshock model is a classic sign of anticonvulsant action.

Data set [3] has as its system GYKI 20039-induced tremor. Description: GYKI 20039-induced tremor test. The settings on record: for change of effectiveness in tremor test when a serotonin uptake inhibitor is present: with 10 mg/kg fluoxetine or 10 mg/kg sertraline i.p., FIG. 4. It counts as in vivo, mice. The method, then:
Tremor can be induced by administration of GYKI 20039 (3-(2,6-diclorophenyl)-2-iminothiazolidine). The method was published by Kocsis P., Tarnawa I., Kovacs Gy., Szombathelyi Zs., Farkas S., 2002; Acta Pharmaceut. Hung., 72:49-61; U.S. Pat. No. 5,340,823, 1994, U.S. Pat. No. 5,198,446, JP 1992270293, EP 0468825, 1990 HU 4647.
Tests were carried out in male NMRI mice (19-21 g), the active substances were administered i.p., simultaneously.
Experiments with combinations containing the active agents in a fixed ratio were also performed.

Data set [4] concerns phenylquinone-induced acute pain. The experiment in a line: Phenylquinone-induced acute pain (writhing test). It counts as in vivo, mice. The note with it: with 10 mg/kg fluoxetine given 15 minutes prior to lamotrigine (i.p.); FIG. 5. An excerpt:
The method used was described by Hendershot and Forsaith in 1959. (Kazuko Goto et al. Analgesic Effect of Mofezolac, a Non-Steroidal Anti-Inflammatory Drug, Against Phenylquinone-Induced Acute Pain in Mice. Prostaglandins & other Lipid Mediators 56: 245-254; 1998, Prem Prakash Singh et al. Acetic Acid and Phenylquinone WrithingTest: A Critical Study in Mice. Meth and Find Exptl Clin Pharmacol 5(9): 601-606; 1983.) Acute pain was induced by injecting phenylquinone, an irritant, into the abdominal cavity (0.02% solution, 0.1 ml/10 g bodyweight). […] Experiments were performed in male NMRI mice (19-21 g).
Background: In writhing tests, fewer writhes than in controls are read as antinociception.

The mark [5] stands for this setting: in combination with fluoxetine (10 mg/kg).
The mark [6] stands for this setting: in combination with sertraline (10 mg/kg).
The mark [7] stands for this setting: with fluoxetine (10 mg/kg) i.p. 45 minutes.
Where [8] appears, read: with sertraline (10 mg/kg) i.p. 45 minutes.
Setting [9] is: 10 mg/kg intraperitoneal dose in mice.

Where two headings read alike, the source gives them in different places.

One may read the ED50 as the dose that gives a 50% effect, or the effect in half of the subjects. As to `CNCCC(Oc1ccc(C(F)(F)F)cc1)c1ccccc1` (stereo not shown) [fluoxetine], in “Rotarod test” (alone), the ED50 at 20 min worked out at 43.5 mg/kg and the ED50 at 35 min was determined as 45.8 mg/kg.
Regarding `CCc1ccc(C(=O)C(C)CN2CCCCC2)cc1` (stereo not shown) [eperisone], in data set [1], the “spinal reflex inhibitory effect” value is on record as “considerable spinal reflex inhibitory effect”.
Consider `C[C@@H](CN1CC[C@@]2(C)c3cccc(O)c3C[C@@H]1C2(C)C)OCc1ccccc1` [crobenetine], for which the figures for the ED50 at 20 min in the data set “Rotarod test” (alone), in “Rotarod test” (setting [5]) and in “Rotarod test” (setting [6]) were 68.1 mg/kg, 38.6 mg/kg and 36.8 mg/kg, respectively. The 50% effective dose (ED50) at 35 min in the data set “Rotarod test” (setting [5]) came out at 51 mg/kg; in “Rotarod test” (setting [6]), 53.1 mg/kg. Moreover, the results for the “ID50 (MES inhibition in mice)” value in data set [2] (alone), in data set [2] (setting [7]) and in data set [2] (setting [8]) were >>20, 17 mg/kg and 15.5 mg/kg, respectively. Further, in data set [3], the “change of effectiveness in tremor test when a serotonin uptake inhibitor is present” value was “increase of their effectiveness”.
For `Nc1nnc(-c2cccc(Cl)c2Cl)c(N)n1` [lamotrigine], the ED50 at 20 min came out at 34.3 mg/kg in the data set “Rotarod test” (alone), 28.5 mg/kg in the data set “Rotarod test” (setting [5]) and 31.9 mg/kg in “Rotarod test” (setting [6]). Further, the values for the ED50 at 35 min in “Rotarod test” (setting [5]) and in “Rotarod test” (setting [6]) were 31.1 mg/kg and 30.8 mg/kg, respectively. In addition, the “change in analgesic potency (ID50, writhing test) in the presence of a serotonin uptake inhibitor” value in data set [4] is on record as “Increase in the analgesic potency”. The ID50 (MES inhibition in mice) in data set [2] (alone) worked out at 4.5 mg/kg; in data set [2] (setting [7]), 1.3 mg/kg; in data set [2] (setting [8]) it was 1.4 mg/kg. In addition, the “ID50 (i.p.) (calculated for the sodium channel blocker in the combination)” value in data set [3] (tremor test, male NMRI mice, i.p., components administered simultaneously in fixed ratio) was 39.79 mg/kg. For the same molecule, the “change of effectiveness in tremor test when a serotonin uptake inhibitor is present” value in data set [3] is recorded as “increase of their effectiveness”.
With `CN[C@H]1CC[C@@H](c2ccc(Cl)c(Cl)c2)c2ccccc21` [sertraline], in the data set “Rotarod test” (alone), the ED50 at 20 min was determined as 112 mg/kg and the ED50 at 35 min was 120 mg/kg.
Take `Cc1ccc(C(=O)C(C)CN2CCCCC2)cc1` (stereo not shown) [tolperisone]: the “spinal reflex inhibitory effect” value in data set [1] is reported as “considerable spinal reflex inhibitory effect”.
Turning to `N=C1SCCN1c1c(Cl)cccc1Cl` [GYKI 20039, 3-(2,6-diclorophenyl)-2-iminothiazolidine], in data set [3] (setting [9]), the “duration of induced tremor” value is 30 to 60 min and the tremor induction result was “intensive tremor”.
